# From US12281323B2, “Treatment for restoring ureagenesis in carbamoyl phosphate synthetase 1 deficiency” (The Regents of the University of California, priority 2019, dated 2025)
# System: conditional CPS1 knock out mouse model
# Assay: sAAV efficacy in vivo in conditional CPS1 knock out mouse model (floxed Cps1 removed by AAV-Cre)
# Conditions: sAAV-treated mice additionally treated with n-carglumic acid
# Source text: To illustrate the ability of sAAVs to treat CPS1 deficiency, sAAVs encoding human codon optimized CPS1 (hcoCPS1) driven by the constitutive CAG promoter were generated and tested in a conditional CPS1 knock out mouse model (see, e.g. Khoja et al., Molecular Genetics and Metabolism. 2018 Aug. 1; 124(4):243-253). […] Currently, there is no effective therapy for human patients with CPS1 disorders. Our data from this gene therapy model in mice having knocked out endogenous CPS1 expression provides evidence that this treatment can address this unmet need for these patients.
# In illustrative embodiments of the invention, to test sAAV efficacy in vivo, a conditional CPS1 knock out mouse model was used. These mice contain biallelic floxed Cps1 which is removed by treatment with an AAV expressing Cre recombinase (AAV-Cre). […] Treatment with the small molecule n-carglumic acid, an analog of NAG, the allosteric activator of CPS1, further extended lifespan (all mice >120 days; p<0.01) and maintained near normal plasma ammonia (baseline: 138.87 μM±86.5; post-treatment: 217.8 μM±69.9; p=0.15).
compound,measurement,setting,value
NC(=O)N[C@@H](CCC(=O)O)C(=O)O [n-carglumic acid],lifespan,"all mice, p<0.01",> 120 days
same,plasma ammonia post-treatment,"±69.9, baseline 138.87 μM±86.5, p=0.15",217.8 µM
